Test results: PubChem BioAssay (NCI)
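96-well plates; 48 h exposure; 5 concentrations. Endpoints by linear interpolation between flanking doses. Not reached: highest tested concentration assigned. TGI: concentration producing complete growth inhibition.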

Key:
Test in all cases: NCI-60 cell line screen, 48 h
786-0 renal = test system: 786-0 renal
A498 renal = test system: A498 renal
A549 NSCLC = test system: A549 NSCLC
ACHN renal = test system: ACHN renal
BT-549 breast = test system: BT-549 breast
CAKI-1 renal = test system: CAKI-1 renal
CCRF-CEM leukemia = test system: CCRF-CEM leukemia
COLO 205 colon = test system: COLO 205 colon
DU-145 prostate = test system: DU-145 prostate
EKVX NSCLC = test system: EKVX NSCLC
HCC-2998 colon = test system: HCC-2998 colon
HCT-116 colon = test system: HCT-116 colon
HCT-15 colon = test system: HCT-15 colon
HL-60(TB) leukemia = test system: HL-60(TB) leukemia
HOP-62 NSCLC = test system: HOP-62 NSCLC
HOP-92 NSCLC = test system: HOP-92 NSCLC
HS 578T breast = test system: HS 578T breast
HT29 colon = test system: HT29 colon
IGROV1 ovarian = test system: IGROV1 ovarian
K-562 leukemia = test system: K-562 leukemia
KM12 colon = test system: KM12 colon
LOX IMVI melanoma = test system: LOX IMVI melanoma
M14 melanoma = test system: M14 melanoma
MALME-3M melanoma = test system: MALME-3M melanoma
MCF7 breast = test system: MCF7 breast
MDA-MB-435 = test system: MDA-MB-435
MDA-N = test system: MDA-N
MOLT-4 leukemia = test system: MOLT-4 leukemia
NCI-H226 lung = test system: NCI-H226 lung
NCI-H23 lung = test system: NCI-H23 lung
NCI-H460 lung = test system: NCI-H460 lung
NCI-H522 lung = test system: NCI-H522 lung
NCI/ADR-RES ovarian = test system: NCI/ADR-RES ovarian
OVCAR-3 ovarian = test system: OVCAR-3 ovarian
OVCAR-4 ovarian = test system: OVCAR-4 ovarian
OVCAR-5 ovarian = test system: OVCAR-5 ovarian
OVCAR-8 ovarian = test system: OVCAR-8 ovarian
PC-3 prostate = test system: PC-3 prostate
RPMI-8226 leukemia = test system: RPMI-8226 leukemia
RXF 393 renal = test system: RXF 393 renal
SF-268 CNS = test system: SF-268 CNS
SF-295 CNS = test system: SF-295 CNS
SF-539 CNS = test system: SF-539 CNS
SK-MEL-28 melanoma = test system: SK-MEL-28 melanoma
SK-MEL-5 melanoma = test system: SK-MEL-5 melanoma
SK-OV-3 ovarian = test system: SK-OV-3 ovarian
SN12C renal = test system: SN12C renal
SNB-19 CNS = test system: SNB-19 CNS
SNB-75 CNS = test system: SNB-75 CNS
SR leukemia = test system: SR leukemia
SW-620 colon = test system: SW-620 colon
T-47D breast = test system: T-47D breast
UACC-257 melanoma = test system: UACC-257 melanoma
UACC-62 melanoma = test system: UACC-62 melanoma
UO-31 renal = test system: UO-31 renal
MDA-MB-231 breast = test system: MDA-MB-231 breast
SK-MEL-2 melanoma = test system: SK-MEL-2 melanoma
TK-10 renal = test system: TK-10 renal
U251 CNS = test system: U251 CNS

Compound: COc1ccc(OC)c(NC(=O)c2c(Cl)c(Cl)c(Cl)c(Cl)c2-c2nc3ccccc3[nH]2)c1
- TGI (786-0 renal): > 100 µM
- TGI (A498 renal): > 100 µM
- TGI (A549 NSCLC): > 100 µM
- TGI (ACHN renal): > 100 µM
- TGI (BT-549 breast): > 100 µM
- TGI (CAKI-1 renal): > 100 µM
- TGI (CCRF-CEM leukemia): > 100 µM
- TGI (COLO 205 colon): > 100 µM
- TGI (DU-145 prostate): > 100 µM
- TGI (EKVX NSCLC): > 100 µM
- TGI (HCC-2998 colon): > 100 µM
- TGI (HCT-116 colon): > 100 µM
- TGI (HCT-15 colon): > 100 µM
- TGI (HL-60(TB) leukemia): > 100 µM
- TGI (HOP-62 NSCLC): > 100 µM
- TGI (HOP-92 NSCLC): > 100 µM
- TGI (HS 578T breast): > 100 µM
- TGI (HT29 colon): > 100 µM
- TGI (IGROV1 ovarian): > 100 µM
- TGI (K-562 leukemia): > 100 µM
- TGI (KM12 colon): > 100 µM
- TGI (LOX IMVI melanoma): > 100 µM
- TGI (M14 melanoma): > 100 µM
- TGI (MALME-3M melanoma): > 100 µM
- TGI (MCF7 breast): > 100 µM
- TGI (MDA-MB-435): > 100 µM
- TGI (MDA-N): > 100 µM
- TGI (MOLT-4 leukemia): > 100 µM
- TGI (NCI-H226 lung): > 100 µM
- TGI (NCI-H23 lung): > 100 µM
- TGI (NCI-H460 lung): > 100 µM
- TGI (NCI-H522 lung): > 100 µM
- TGI (NCI/ADR-RES ovarian): > 100 µM
- TGI (OVCAR-3 ovarian): > 100 µM
- TGI (OVCAR-4 ovarian): > 100 µM
- TGI (OVCAR-5 ovarian): > 100 µM
- TGI (OVCAR-8 ovarian): > 100 µM
- TGI (PC-3 prostate): > 100 µM
- TGI (RPMI-8226 leukemia): > 100 µM
- TGI (RXF 393 renal): > 100 µM
- TGI (SF-268 CNS): > 100 µM
- TGI (SF-295 CNS): > 100 µM
- TGI (SF-539 CNS): > 100 µM
- TGI (SK-MEL-28 melanoma): > 100 µM
- TGI (SK-MEL-5 melanoma): > 100 µM
- TGI (SK-OV-3 ovarian): > 100 µM
- TGI (SN12C renal): > 100 µM
- TGI (SNB-19 CNS): > 100 µM
- TGI (SNB-75 CNS): > 100 µM
- TGI (SR leukemia): > 100 µM
- TGI (SW-620 colon): > 100 µM
- TGI (T-47D breast): > 100 µM
- TGI (UACC-257 melanoma): > 100 µM
- TGI (UACC-62 melanoma): > 100 µM
- TGI (UO-31 renal): > 100 µM

Compound: CN(CCNC(=O)c1nn(-c2ccccc2)c2c1ccc1ccccc12)CCNC(=O)c1nn(-c2ccccc2)c2c1ccc1ccccc12
- TGI (786-0 renal): 3.04 µM
- TGI (A498 renal): 5.29 µM
- TGI (A549 NSCLC): 10.6 µM
- TGI (ACHN renal): 5.51 µM
- TGI (BT-549 breast): 21.8 µM
- TGI (CAKI-1 renal): 15.6 µM
- TGI (CCRF-CEM leukemia): 9.92 µM
- TGI (COLO 205 colon): 2.99 µM
- TGI (DU-145 prostate): 70.2 µM
- TGI (EKVX NSCLC): 4.41 µM
- TGI (HCC-2998 colon): 2.92 µM
- TGI (HCT-116 colon): 2.87 µM
- TGI (HCT-15 colon): 3.39 µM
- TGI (HL-60(TB) leukemia): 3.94 µM
- TGI (HOP-62 NSCLC): 3.38 µM
- TGI (HOP-92 NSCLC): 3.79 µM
- TGI (HS 578T breast): 4.22 µM
- TGI (HT29 colon): 15.8 µM
- TGI (IGROV1 ovarian): 5.27 µM
- TGI (KM12 colon): 6.22 µM
- TGI (LOX IMVI melanoma): 3.18 µM
- TGI (M14 melanoma): 3.85 µM
- TGI (MALME-3M melanoma): 3.84 µM
- TGI (MCF7 breast): 3.91 µM
- TGI (MDA-MB-231 breast): 2.74 µM
- TGI (MDA-MB-435): 4 µM
- TGI (MDA-N): 3.19 µM
- TGI (MOLT-4 leukemia): 1.72 µM
- TGI (NCI-H226 lung): 7.7 µM
- TGI (NCI-H23 lung): 6.78 µM
- TGI (NCI-H460 lung): 2.99 µM
- TGI (NCI-H522 lung): 3.6 µM
- TGI (NCI/ADR-RES ovarian): 9.15 µM
- TGI (OVCAR-3 ovarian): 4.16 µM
- TGI (OVCAR-4 ovarian): 22.1 µM
- TGI (OVCAR-5 ovarian): 40.5 µM
- TGI (OVCAR-8 ovarian): 3.29 µM
- TGI (PC-3 prostate): 7.08 µM
- TGI (RPMI-8226 leukemia): 1.8 µM
- TGI (RXF 393 renal): 3.34 µM
- TGI (SF-268 CNS): 4.6 µM
- TGI (SF-295 CNS): 3.21 µM
- TGI (SF-539 CNS): 3.07 µM
- TGI (SK-MEL-2 melanoma): 3.5 µM
- TGI (SK-MEL-28 melanoma): 3.23 µM
- TGI (SK-MEL-5 melanoma): 3.1 µM
- TGI (SK-OV-3 ovarian): 7.28 µM
- TGI (SN12C renal): 3.46 µM
- TGI (SNB-19 CNS): 8.11 µM
- TGI (SNB-75 CNS): 5.55 µM
- TGI (SW-620 colon): 4.46 µM
- TGI (T-47D breast): 6.95 µM
- TGI (TK-10 renal): 3.37 µM
- TGI (U251 CNS): 3.05 µM
- TGI (UACC-257 melanoma): 3.22 µM
- TGI (UACC-62 melanoma): 3.37 µM
- TGI (UO-31 renal): 3.78 µM
